Source: patent US6537988B2, “Synergistic methods and compositions for treating cancer” (Bristol-Myers Squibb Company, priority 2000, dated 2003)
Converted amounts (≈) assume the structure as drawn. “Also recorded” adds a separate entry of the source. Read-outs that look alike come from different tables or passages of the source.

Legend:
[1] = Maximum tolerated dose / regimen in tumor-bearing mice; type: in vivo, nude mice
Excerpt: The maximum tolerated dose (MTD) is defined as the dose level immediately above which excessive toxicity (i.e. more than one death) occurred. […] Activity is described at the OD.

[2] = test system: HCTVM46 human colon carcinoma; experiment: Multidrug-resistant HCT/VM46 xenograft (FIGS. 13, 14); details: single agents or Compound 1 followed 24 hr later with Compound 2
Protocol: (§1) Tumor response was determined by measurement of tumors with a caliper twice a week until the tumors reached a predetermined “target” size of 0.5 or 1.0 g. Tumor weights (mg) were estimated from the formula:
(§2) Tumor response end-point was expressed in terms of tumor growth delay (T-C value), defined as the difference in time (days) required for the treated tumors (T) to reach a predetermined target size compared to those of the control group (C).
(§3) A tumor is defined as “cured” when there is no detectable disease at the time of study termination (Day >75 days post-tumor implantation); the interval between study termination and the end of drug treatment always exceeded 10 times the volume doubling time of any particular tumor type.

[3] = test system: HCT-116 human colon carcinoma cells; experiment: Clonogenic cell colony-formation assay, stationary vs log phase cells; details: for fold less sensitive: cells in exponential growth (Day 2) vs stationary phase (Day 8) / fold more sensitive: cells in exponential growth (Day 2) vs stationary phase (Day 8): HCT-116 in vitro, figure legends; for cytotoxicity against non-proliferating stationary cells: HCT-116, paclitaxel at concentrations as high as 162 nM
Protocol: (§4) At the end of a 16 h drug exposure, monolayer cell cultures were dissociated by exposing the cells to 0.05% trypsin for 5 min at 37° C. Cells were resuspended in complete media (containing 10% FBS), counted with a Coulter Channelyzer, diluted and plated with 5 replicates per dilution, into plastic tissue culture petri dishes. The cells were incubated in a humidified atmosphere for 10 days at 37° C. Cell colonies were stained with crystal violet and those with >50 cells per colony were scored.

[4] = test system: A2780 human ovarian cancer cells; experiment: Colony formation of A2780 cells, CDK inhibitor plus Compound 2; type: cell-based; details: 1.5 μM, 4 hour treatment
[5] = test system: MCF-7 estrogen-dependent human breast carcinoma; experiment: MCF-7 xenograft, tamoxifen plus Compound 2; type: in vivo, nude mice; details: tamoxifen 40 mpk PO Q2D×14, Compound 2 po 100 mpk qd×10, two courses
Protocol: Tamoxifen was administered PO, Q2D×14.
The majority of human breast cancers require estrogen for growth and tumor progression (estrogen-dependent). […] In order to assess the efficacy of the combined anti-cancer agents of the invention in a human breast cancer model, MCF-7 xenografts were grown in nude mice and treated as described herein.

[6] = test system: HT-29 human colon carcinoma; experiment: Advanced HT-29 xenograft, gemcitabine plus Compound 2; type: in vivo, nude mice
Excerpt: The agent primarily kills cells undergoing DNA synthesis (S-phase) and also blocks the progression of cells through the G1/S-phase boundary.

[7] = test system: Her-1 activated SAL-2 cancer cell line; type: cell-based; details: 20 hours exposure
Protocol: FIG. 18A: Clonogenic survival of the SAL-2 cell line following exposure to paclitaxel for 20 hours at the indicated concentrations.

[8] = test system: HCT116 human colon carcinoma; details: Compound 2 125 mpk 24 h iv infusion; paclitaxel 24 mg/kg iv; alone or combined
Protocol: as §1, §2

[9] = test system: advance HCT116 human colon carcinoma; details: dose 20 mg/kg/inj, IV, Q7D × 4
Protocol: Paclitaxel was administered IV at 20 mg/kg/inj, Q7D×4.
as §1, §2, §3

[10] = test system: advanced HCT116 human colon carcinoma; details: dose 30 mg/kg/inj; IV, Q2D × 5
Protocol: as §1, §2

[11] = test system: HCT-116 human colon carcinoma cells
Protocol: as §4

[12] = IC90 Log / IC90 Stationary, HCT116
[13] = read-out: IC90 Log (converted), log phase (proliferating) HCT116 cells, 16 h drug exposure
[14] = read-out: IC90 Stationary, stationary phase (non-proliferating, Day 8) HCT116 cells, 16 h drug exposure
[15] = read-out: IC90 Log (converted), log phase (proliferating) HCT116 cells
[16] = read-out: IC90 Stationary, stationary phase (non-proliferating) HCT116 cells

C/C(=C\c1csc(C)n1)[C@@H]1C[C@@H]2O[C@]2(C)CCC[C@H](C)[C@H](O)[C@@H](C)C(=O)C(C)(C)[C@@H](O)CC(=O)N1 (relative stereo) [Compound 1, [1S-[1R*,3R*(E),7R*,10S*,11R*,12R*,16S*]]-7,11-dihydroxy-8,8,10,12,16-pentamethyl-3-[1-methyl-2-(2-methyl-4-thiazolyl)ethenyl]-4-aza-17-oxabicyclo[14.1.0]heptadecane-5,9-dione]
maximum tolerated regimen ([1]; HCTVM46 study FIG. 13, single agents, q4d×3): 15 mg/kg | maximum tolerated regimen ([1]; HCTVM46 study FIG. 14, Compound 1 iv q4d×3, Compound 2 ip q4d×3, single agents): 10 mg/kg | tumor cure [2]: did not induce tumor cure | log cell kill ([2]; maximum tolerated regimens, q4d×3): 1.6 LCK

CC(O)(CS(=O)(=O)c1ccc(F)cc1)C(=O)Nc1ccc(C#N)c(C(F)(F)F)c1 (centres unmarked) [Casodex®, bicalutamide]
maximum tolerated doses and regimens ([1]; Pca-2b-AI study, Compound 2 po q1D×10, Casodex® po q1D×4): 150 mpk

N#Cc1ccc2c(c1)CN(S(=O)(=O)N1CCCCC1)[C@H](Cc1ccccc1)CN2Cc1c[nH]cn1 [Compound 6, (R)-7-cyano-2,3,4,5-tetrahydro-1-(1H-imidazol-4-ylmethyl)-3-(phenylmethyl)-4-(1-piperidinylsulfonyl)-1H-1,4-benzodiazepine]
fold less sensitive: cells in exponential growth (Day 2) vs stationary phase (Day 8) [3]: ~67 fold | Non-proliferative cells selectivity ratio (fold) [3, 12]: 64.2 fold | IC90 [3, 13]: 66800 nM | IC90 [3, 14]: 1040 nM

CC(C)(C)c1cnc(CSc2cnc(NC(=O)C3CCNCC3)s2)o1 [Compound 9, N-[5-[[[5-(1,1-dimethylethyl)-2-oxazolyl]methyl]thio]-2-thiazolyl]-4-piperidinecarboxamide]
effect of single agent [4]: no effect dose

O=c1[nH]cc(F)c(=O)[nH]1 [5-Fluorouracil, 5-fluorouracil]
cytotoxicity against non-proliferating stationary cells [3]: essentially ineffective | Non-proliferative cells selectivity ratio (fold) [3, 12]: <0.03 fold | IC90 Log ([3]; log phase HCT116 cells): >162 μg/ml | IC90 Stationary ([3]; stationary phase HCT116 cells): 4.6 µg/mL (≈ 35.4 µM)

CCCCS(=O)(=O)N1Cc2cc(C#N)ccc2N(Cc2c[nH]cn2)C[C@H]1Cc1ccccc1 [Compound 3, (R)-4-(butylsulfonyl)-7-cyano-2,3,4,5-tetrahydro-1-(1H-imidazol-4-ylmethyl)-3-(phenylmethyl)-1H-1,4-benzodiazepine]
Non-proliferative cells selectivity ratio (fold) [3, 12]: 181.0 fold | IC90 [3, 13]: 65000 nM | IC90 [3, 14]: 360 nM

CC/C(=C(\c1ccccc1)c1ccc(OCCN(C)C)cc1)c1ccccc1 [Tamoxifen]
tumor remission / cures [5]: no cures were observed | effect on tumor growth ([5]; alone or combined): markedly more active

N#Cc1ccc2c(c1)CN(S(=O)(=O)c1ccc(Br)s1)[C@H](Cc1ccccc1)CN2Cc1c[nH]cn1 [Compound 5, (R)-4-[(5-bromo-2-thienyl)sulfonyl]-7-cyano-2,3,4,5-tetrahydro-1-(1H-imidazol-4-ylmethyl)-3-(phenylmethyl)-1H-1,4-benzodiazepine]
Non-proliferative cells selectivity ratio (fold) [3, 12]: 78.4 fold | IC90 [3, 13]: 84700 nM | IC90 [3, 14]: 1080 nM

COCCCS(=O)(=O)N1Cc2cc(C#N)ccc2N(Cc2c[nH]cn2)C[C@H]1Cc1ccccc1 [Compound 4, (R)-4-(3-methoxypropylsulfonyl)-7-cyano-2,3,4,5-tetrahydro-1-(1H-imidazol-4-ylmethyl)-3-(phenylmethyl)-1H-1,4-benzodiazepine]
fold less sensitive: cells in exponential growth (Day 2) vs stationary phase (Day 8) [3]: ~91.2 fold | Non-proliferative cells selectivity ratio (fold) [3, 12]: 86.9 fold | IC90 [3, 13]: 91200 nM | IC90 [3, 14]: 1050 nM

Nc1ccn([C@@H]2O[C@H](CO)[C@@H](O)C2(F)F)c(=O)n1 [Gemcitabine]
MTD ([1]; gemcitabine IV, Q2D×4, HT-29 study): 36 mg/kg/inj | response rate ([6]; single agent gemcitabine 6 mg/kg/inj (so in the source)): 25% | response rate ([6]; single agent gemcitabine 24 mg/kg/inj): 0%

CC(=O)O[C@H]1C(=O)[C@@]2(C)[C@H]([C@H](OC(=O)c3ccccc3)[C@]3(O)C[C@H](OC(=O)[C@H](O)[C@@H](NC(=O)c4ccccc4)c4ccccc4)C(C)=C1C3(C)C)[C@]1(OC(C)=O)CO[C@@H]1C[C@@H]2O [Paclitaxel, paclitaxel]
Non-proliferative cells selectivity ratio (fold) [3]: <0.1 fold | cytotoxicity against non-proliferating stationary cells [3]: essentially ineffective; also recorded: completely non-toxic | fold more sensitive: cells in exponential growth (Day 2) vs stationary phase (Day 8) [3]: > 10 fold | IC90 [3, 15]: 17.8 nM | IC90 [3, 16]: > 162 nM | maximum tolerated regimen ([1]; Pat-7 study, paclitaxel iv q3d×3, Compound 2 ip q3d×3): 36 mg/kg | sensitivity of exponentially growing SAL2 cells to single agent [7]: relatively resistant | log cell kill [8]: 0.6 LCK | Tumor Response CR (%) [9]: 0% | Tumor Response LCK [9]: 2.5 | Tumor Response PR (%) [9]: 20% | Tumor Response Cures (%) ([9]; Day 77): 0%

COc1ccc(S(=O)(=O)N2Cc3cc(C#N)ccc3N(Cc3c[nH]cn3)C[C@H]2Cc2ccccc2)cc1 [Compound 7, (R)-7-cyano-2,3,4,5-tetrahydro-1-(1H-imidazol-4-ylmethyl)-4-[(4-methoxyphenyl)sulfonyl]-3-(phenylmethyl)-1H-1,4-benzodiazepine]
Non-proliferative cells selectivity ratio (fold) [3, 12]: 2.7 fold | IC90 [3, 13]: 26000 nM | IC90 [3, 14]: 9600 nM

CCc1c2c(nc3ccc(OC(=O)N4CCC(N5CCCCC5)CC4)cc13)-c1cc3c(c(=O)n1C2)COC(=O)[C@]3(O)CC [CPT-11]
Tumor Response CR (%) [10]: 0% | Tumor Response LCK [10]: 1.5 | Tumor Response PR (%) [10]: 50% | MTD ([1]; CPT-11 IV (Q2D × 5), HCT116 study): ~30 mg/kg/inj

C/C(=C\c1csc(C)n1)[C@@H]1C[C@@H]2O[C@]2(C)CCC[C@H](C)[C@H](O)[C@@H](C)C(=O)C(C)(C)[C@@H](O)CC(=O)O1 [Epothilone B, epothilone B]
fold more sensitive: cells in exponential growth (Day 2) vs stationary phase (Day 8) [3]: > 83 fold | Non-proliferative cells selectivity ratio (fold) [3, 12]: <0.01 fold | IC90 [3, 15]: 1.3 nM | IC90 [3, 16]: > 108 nM | cytotoxicity against non-proliferating stationary cells [11]: essentially ineffective
